Patent US10799521B2, “Use of icaritin in preparing medicament for preventing or treating hematocytopenia” (Lunan Pharmaceutical Group Corporation, priority 2013, dated 2020)
Marks after values point to notes of the source that are not given here.

Tests used:
[1] = tested on: mice receiving 4 Gy of ^60Co radiation; experiment: Effect on the number of blood cells in mice receiving 4 Gy of ^60Co radiation; format: in vivo, Kunming mice; details: 4 Gy ^60Co irradiated mice; ip once a day for 10 days; epimedium extract 3.5 ml/kg/d, icaritin 10 mg/kg/d
Excerpt: Mice in each group, except for the normal group (10 mice), were radiated with 4 Gy of ^60Co by one-time systemic radiation with an absorbed dose of 4 Gy and an absorbed dose rate of 0.88 Gy/min. Blood was sampled at days 3, 7 and 10 after the radiation, respectively, from orbital vein for the whole blood cell count. The mice of which the number of white blood cells was lower than 3.0×10^9/L or the number of platelets was lower than 500×10^9/L in two consecutive whole blood cell counts were excluded, and the remaining mice were used to be tested.
The mice which met the requirements of the experiment after the radiation were randomly divided into the following model control group, epimedium extract group and icaritin group, with 10 animals in each group and half male and half female. Each group was treated or administered as follows.
Group 1, the normal group: administered by intraperitoneal injection with 0.9% normal saline in an administration volume of 10 ml/kg;
Group 2, the model control group: administered by intraperitoneal injection with 0.9% normal saline in an administration volume of 10 ml/kg; […]
Each group was administered once a day for totally 10 days. […] After the test was ended, blood was sampled from abdominal aorta for routine blood test, and the total number of white blood cells and the total number of platelets were determined.

normal mice [2] = experiment: Clotting time in normal mice (capillary method); format: in vivo, Kunming mice; design: unit not given here; details: 3 days, 1 h after last administration
Protocol: 100 Kunming mice were randomly divided into 5 groups, i.e. the blank control group (normal saline group), the icariin group (positive control group), the high-dose icaritin group, the medium-dose icaritin group, and the low-dose icaritin group. Each group was administered as follows.
Blank control group: administered with the same volume of normal saline by subcutaneous injection;
Icariin group: administered with 2 mg/kg of icariin by injection;
High-dose icaritin group: administered with the injection of icaritin of Example 1 by subcutaneous injection at a dosage of 10 mg/kg;
Medium-dose icaritin group: administered with the injection of icaritin of Example 1 by subcutaneous injection at a dosage of 5 mg/kg;
Low-dose icaritin group: administered with the injection of icaritin of Example 1 by subcutaneous injection at a dosage of 1 mg/kg.
Measurement of the clotting time: The normal saline group (blank control group), the icariin group (positive control group), and the icaritin administration groups (high-, medium-, and low-dose groups) were designed as follows: 50 mice were selected, weighed and randomly divided into 5 groups, with 10 mice in each group. The animals were administered consecutively for 3 days. At 1 h after the last administration, blood was sampled from the venous plexus by inserting a disposable 20 μl blood collection tube into the inner canthus of the mouse to collect 20 μl of blood. A small fragment of capillary was broken off every 15 s for checking the occurrence of clotting filaments. The time from the blood sampling to the occurrence of fibrous protein filaments (clotting time) was recorded, and the results were shown in Table 5.

[3] = design: species or system Kunming mice; details: mouse, in vivo
Protocol: Mice ascites tumor s180 cells were conventionally incubated in 1640 culture medium, at 37° C., 5% CO2, and passaged once every two days in average. The cells in the logarithmic growth phase were prepared into a single-cell suspension having a density of 3.0×10^7 cells/ml with normal saline, which was injected into the abdominal cavities of mice under sterile conditions. Seven days after inoculation, significant swelling of the abdominal cavities of mice can be seen. As this time, the mice were executed by cervical vertebra luxation, put into a beaker containing 75% ethanol and soaked for 2-3 minutes. The sterilized mice were placed into an ultraclean bench, and the abdomens were exposed. The ascites was drawn with a sterile syringe and put into a sterile reagent bottle for further use. The above ascites was counted with trypan blue, diluted with normal saline to adjust to 2.0×10^7 cells/ml, and inoculated at the right armpit of the mice with 0.2 ml for each mouse.
The inoculated mice were randomly divided into 6 groups, with 10 animals in each group and half male and half female.
Docetaxel and icaritin were administered by tail intravenous injection with an administration volume of 10 ml/kg for each. Tegafur, Gimeracil and Oteracil Potassium Capsules was intragastrically administered with an administration volume of 40 ml/kg. Each group was administered once a day for totally 10 days. During the test, the animals were observed every day for their food and water uptake, survival conditions and behaviors, and measured for their body weights every day. After the test was ended, the mice were anaesthetized and anatomized. Blood was collected from abdominal aorta for routine blood test, and the total number of white blood cells, the total number of platelets and the total number of neutrophils were determined.

normal mice [4] = experiment: Bleeding time in normal mice (tail tip cut); format: in vivo, Kunming mice; design: unit not given here; details: 3 days, 1 h after last administration
Protocol: 100 Kunming mice were randomly divided into 5 groups, i.e. the blank control group (normal saline group), the icariin group (positive control group), the high-dose icaritin group, the medium-dose icaritin group, and the low-dose icaritin group. Each group was administered as follows. Blank control group: administered with the same volume of normal saline by subcutaneous injection; Icariin group: administered with 2 mg/kg of icariin by injection; High-dose icaritin group: administered with the injection of icaritin of Example 1 by subcutaneous injection at a dosage of 10 mg/kg; Medium-dose icaritin group: administered with the injection of icaritin of Example 1 by subcutaneous injection at a dosage of 5 mg/kg; Low-dose icaritin group: administered with the injection of icaritin of Example 1 by subcutaneous injection at a dosage of 1 mg/kg. Measurement of the bleeding time: The normal saline group (blank control group), the icariin group (positive control group), and the icaritin administration groups (high-, medium-, and low-dose groups) were designed as follows: 50 mice were selected, weighed, and randomly divided into 5 groups, with 10 mice in each group. The animals were administered consecutively for 3 days. At 1 h after the last administration, a filter paper was rolled to form a filter paper cartridge with a diameter similar to that of the mouse body, which was closed at one end. The mouse was allowed to climb into the cartridge. Then about 3 mm of tail tip of the mouse was cut with scissors. A stopwatch was started to record the time when the bleeding started. The tail tip of the mouse was point-contacted with a filter paper gently every 15 s until there was no blood or no blood can be seen.

COc1ccc(-c2oc3c(CC=C(C)C)c(O)cc(O)c3c(=O)c2O)cc1 [Icaritin]
Platelets [1]: 596.2 ± 72.5^#$ 10^9/L | White blood cells [1]: 4.225 ± 0.51^##$ 10^9/L | Clotting Time (normal mice [2]; high dose 10 mg/kg sc): 1.96 ± 0.16**^ΔΔ | Clotting Time (normal mice [2]; low dose 1 mg/kg sc): 3.84 ± 0.55 | Clotting Time (normal mice [2]; medium dose 5 mg/kg sc): 3.04 ± 0.31**^Δ | Body weight Before Administration [3]: 21.1 ± 3.0 g | Bleeding Time (normal mice [4]; high dose 10 mg/kg sc): 1.86 ± 0.24**^ΔΔ | Bleeding Time (normal mice [4]; low dose 1 mg/kg sc): 3.75 ± 0.46 | Bleeding Time (normal mice [4]; medium dose 5 mg/kg sc): 2.51 ± 0.35**^Δ
